Columns and labels:
[1] = tested on: fear memory in mice; test: Contextual fear conditioning, freezing behavior; format: in vivo
Experimental: Mice (n=8, by condition) were treated with vehicle or cotinine (1 and 5 mg/kg/day) for 8 days and then subjected to Fear conditioning training as described. After 24 hours (h) mice were tested for freezing behavior when re-exposed to the same context (the chamber) every day for […].
To study the effect of cotinine on contextual fear memory, we pretreated mice with vehicle or cotinine at 1 and 5 mg/kg/day for 8 days. After this time, mice were trained for contextual fear conditioning (FC). Briefly, mice were trained to associate the context (the chamber) with an aversive unconditioned stimulus (1 mA foot shock for 2 seconds). After the FC training, the mice were re-exposed to the context every day for 7 consecutive days. The mice were treated daily with vehicle or cotinine at 1 and 5 mg/kg during the FC training and re-exposure to the context. The fear memory of the mice expressed as freezing behavior was assessed each day after re-exposure to the context. The fear memory after 24 h of the FC training is considered a measure of retention of the fear memory. The reduction of fear memory expressed as a reduction in the freezing behavior after the retention trial is evaluated as the extinction of the fear memory.

[2] = in vivo; cited from earlier work
[3] = biological target: Aβ (Homo sapiens, UniProt P05067); test: Binding of cotinine to Aβ in vitro
[4] = tested on: anxiety in mice; test: Elevated plus maze, basal anxiety; format: in vivo; settings: cotinine 1 and 5 mg/kg
Text: Mice were placed in an EPM (Stoelting, Wood Dale, Ill., USA) made of grey plexiglas, consisting of two opposite-facing open arms, two opposite-facing closed arms, and a central area. Mice were placed at the end of one of the open arms facing toward the central area before a 5-minute test session was begun. We recorded the number of entries into the open and closed arms and assessed the exploratory behavior of the mice. We utilized a video tracking software that measures movement in each section of the maze in order to determine the time the mice were mobile exploring the different arms. Statistical significance was evaluated using One-way ANOVA with Tukey posttest. ns, not significant.
The elevated plus maze (EPM) is considered the first choice test for screening anxiolytic effects of drugs. This test is based on the fact that higher anxiety levels will decrease the drive to explore a new environment as a way to avoid a potentially dangerous areas (open arms), and will, therefore, cause the mice to stay immobile in the closed arms for a longer period of time.

[5] = tested on: Arc; test: BDNF-induced Arc expression in primary cortical neurons, Western blot; format: cell-based; settings: BDNF plus cotinine 2 h, 7 DIV cortical neurons
Text: Then cells were washed with PBS and disrupted by sonication in lysis buffer. Cell extracts were separated by SDS-PAGE and analyzed by Western blot with antibodies against Arc and β-tubulin, which was used as a control (FIG. 16B). The histogram represents the mean±SEM of experiments performed in triplicate. […] BDNF, brain-derived neurotrophic factor.

[6] = tested on: rat cortical cells exposed to Aβ1-42; test: Aβ toxicity assay, MTT cell viability; format: cell-based
Experimental: Primary cortical embryonic rat neurons were incubated with 5 μM Aβ in the presence or absence of various concentrations cotinine for […] as described (Echeverria et al. (2005)). Cell viability was assessed using the MTT assay (Sigma). As an alternative approach cell viability after exposure to Aβ and cotinine was assessed using the vital dye calcein-AM (green fluorescence) to stain live cells and propidium iodide to stain dead cells. MTT values were normalized to control values considered 100%.
It has been discovered that cotinine protects brain cortical cells against the toxicity of the Amyloid beta peptide. The cortical cells were exposed to 5 microM Aβ for 24 hours and 48 hours and analyzed for cell viability using two viability tests. Cell viability was quantified by MTT and propidium iodide (PI) and calcein-AM staining assays. MTT assay measures the mitochondrial conversion of the tetrazolium salt MTT (3-(4,5-dimethylthiazol-2-yl)-2,5-diphenyl tetrazolium bromide) to formazan. To perform the MTT assay the cell culture medium was replaced with medium containing MTT (0.5 mg/mL). Following 1-4 h of incubation at 37° C., MTT formazan crystals were dissolved in DMSO and absorbance at 570 nm was measured. Absorbance values are a measure of cell viability. MTT results are expressed as percentage of vehicle treated controls. MTT assays were performed by measuring the levels of formazan after dissolving the precipitates in DMSO. The double calcein—AM and PI staining, involves staining with PI (a fluorescent nucleic acid dye used for the staining of dead cells) and calcein-AM a compound that inside of live brain cells, is converted to the green fluorescent compound calcein. After 30 minutes of incubation of the cells with these compounds were washed and analyzed by fluorescence microscopy. […] Cotinine inhibits Abeta oligomerization and prevents its toxicity on cortical neurons.
Embryonic rat cortical neurons were cultured following the protocol described (Brewer (1995)) but using embryonic cortical tissues obtained from Brain Bits LLC (Springfield, Ill., USA). The brain tissues were dissociated by 0.05% (v/v) trypsin digestion and dissociated by repeated passages through a pipette tip. Cortical cells (2×10^5 cells, 1,250 cells/mm^2) were plated in Neurobasal E medium, supplemented with 2% B27, and 1 mM Glutamax and plated onto 20-mm tissue culture wells coated with poly-D-lysine (0.1 mg/ml). Then cortical cells were incubated at 37° C. in a humidified incubator with 95% air/5% CO2 for 7-10 days, before being used for cell viability and protein expression analysis.
For the Aβ neurotoxicity assay, after 7 days in vitro (DIV) the conditioned media of cortical cells was replaced with Neurobasal E medium, supplemented with 2% B27 without antioxidants (B27-AO; Invitrogen, Carlsbad, Calif.) for 2 h. […]
Cell viability was quantified by MTT and propidium iodide (PI) and calcein-AM staining. […] Following 1-4 h incubation at 37° C., MTT formazan crystals were dissolved in DMSO and absorbance at […] was measured. MTT results are expressed as a percentage of vehicle-treated controls.
To investigate the effect of cotinine on Aβ neurotoxicity, rat cortical cells were grown in conditions that permitted us to obtain a neuron-enriched culture (around 95% neuron and 5% glial cells) for 7-10 days. […] After 24 h, cell survival was assessed by using MTT and PI and calcein-AM cell viability assays. […]

Sequence of Aβ (P05067 672-713 limits assumed): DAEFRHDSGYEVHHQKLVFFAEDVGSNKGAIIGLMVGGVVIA

CN1C(=O)CC[C@H]1c1cccnc1 [cotinine]
freezing in the retention test versus vehicle ([1]; cotinine 1 mg/kg/day, 24 h after FC training, p=0.0191): significantly lower percentage of freezing | freezing in the extinction test versus vehicle ([1]; cotinine 5 mg/kg, day 6 of re-exposure, p=0.0218): significantly lower percentage of freezing | half-life [2]: 10 to 24 h | binding to Aβ [3]: high affinity | time spent on open arms (EPM, resting conditions) ([4]; p=0.4471): did not change | time spent on closed arms (EPM, resting conditions) ([4]; p=0.6186): did not change | time spent exploring the maze (EPM, resting conditions) ([4]; p=0.8831): did not change | BDNF-induced expression of Arc [5]: enhances the BDNF-induced expression of Arc | cell survival, % of vehicle-treated control cells (MTT) ([6]; 5 μM Aβ + 10 μM cotinine, 24 h, 7 DIV cortical cells, Aβ alone 76%): 85% | effect on Aβ neurotoxicity when cotinine is added after pre-aggregation of Aβ ([6]; Aβ pre-incubated 3 h at 4° C. without cotinine, then added to media containing 10 μM cotinine): not able to block Aβ neurotoxicity | increase in cell viability versus Aβ alone ([6]; Aβ pre-incubated with 10 μM cotinine 3 h at 4° C.): 22% | viability at 10 µM ([6]; Rattus norvegicus, Aβ pre-incubated with 10 μM cotinine 3 h at 4° C., then 24 h on cells, Aβ alone 66%±3.6): 87.3% | lowest cotinine concentration protecting cortical cells against Aβ toxicity (MTT) ([6]; added together with 5 μM Aβ, 24 h): 1 µM

Reference: US10238641B2, “Materials and methods for diagnosis, prevention and/or treatment of stress disorders and conditions associated with A-beta peptide aggregation” (The United States of America as represented by the …, priority 2008, dated 2019)
